Values after ≈ are worked out from the molar mass of the structure shown. Values joined by “and” are separate entries in the source; they are usually repeats but may differ in a detail not shown here. Equal values may be shown once.

One may read the EC50 as the midpoint of the concentration-response curve. One may read the MIC as the least concentration at which growth counts as inhibited. A word on the IC50: it is the concentration that inhibits the measured activity by half.

For one data set, the system named is Leishmania amazonensis. Description: Anti-promastigote activity against Leishmania amazonensis (IFLA/BR/67/PH8) assessed as promastigote growth inhibition incubated for 72 hrs by microscopic analysis. The data set is classed as functional, organism-based. The settings on record: Leishmania amazonensis, IFLA/BR/67/PH8, 72 h.
The next data set relates to DNA. Description: Binding affinity to parasitic DNA assessed as intrinsic binding constant by UV-visible absorption spectrophotometry. The data set is classed as nucleic-acid assay.
The next data set relates to Heyndrickxia coagulans. Nature of the data set: Antibacterial activity against Bacillus coagulans assessed as bacterial growth inhibition. The data set is classed as functional.
Another data set has as its system Enterococcus faecalis. Nature of the data set: Antibacterial activity against Enterococcus faecalis assessed as bacterial growth inhibition. The data set is classed as functional.
In data set [1] the test system is Escherichia coli. Nature of the data set: Antibacterial activity against Escherichia coli assessed as bacterial growth inhibition. The data set is classed as functional.
A further data set deals with Staphylococcus coagulans. Nature of the data set: Antimicrobial activity against Staphylococcus coagulans assessed as microbial growth inhibition incubated for 24 hrs by disc diffusion assay. The data set is classed as functional. In general terms: Agar diffusion results depend on both activity and mobility in agar.
Data set [2] concerns HepG2. Description: Cytotoxicity against human HepG2 cells assessed as cell growth inhibition incubated for 48 hrs by MTT assay. The data set is classed as functional, cell-based.
For data set [3], the system named is MCF7. Description: Cytotoxicity against human MCF7 cells assessed as cell growth inhibition incubated for 48 hrs by MTT assay. The settings on record: MCF7, 48 h. The data set is classed as functional, cell-based.
The next data set addresses T1, TGF-beta receptor type-1 (Homo sapiens, UniProt P36897).
T1 sequence (P36897 whole entry): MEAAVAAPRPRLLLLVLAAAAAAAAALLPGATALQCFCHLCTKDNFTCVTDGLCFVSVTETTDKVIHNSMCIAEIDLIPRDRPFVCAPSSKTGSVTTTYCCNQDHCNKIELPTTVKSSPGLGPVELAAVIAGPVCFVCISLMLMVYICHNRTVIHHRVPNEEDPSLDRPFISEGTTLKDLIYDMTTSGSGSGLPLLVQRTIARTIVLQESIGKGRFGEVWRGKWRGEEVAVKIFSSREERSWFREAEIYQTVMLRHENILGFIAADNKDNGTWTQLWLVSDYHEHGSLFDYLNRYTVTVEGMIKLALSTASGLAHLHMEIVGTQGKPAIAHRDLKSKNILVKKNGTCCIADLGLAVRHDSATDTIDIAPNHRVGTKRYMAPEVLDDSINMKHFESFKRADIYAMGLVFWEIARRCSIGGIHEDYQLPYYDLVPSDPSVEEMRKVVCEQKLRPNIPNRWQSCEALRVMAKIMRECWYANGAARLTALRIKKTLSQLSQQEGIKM
Nature of the data set: Inhibition of human TGF-beta-R1 using TMB substrate incubated for 2.5 hrs by microplate reader analysis.

Data set [4] can be described thus: Cytotoxicity against human WI-38 cells assessed as cell growth inhibition incubated for 2 days by MTT assay. The data set is classed as toxicity, cell-based.
A further data set concerns PC-3. Description: Cytotoxicity against human PC-3 cells assessed as cell growth inhibition incubated for 2 days by MTT assay. The data set is classed as functional, cell-based. Conditions: PC-3, 48 h. For orientation: Tetrazolium dyes change colour on reduction, which living cells bring about.
The test system of data set [5] is HepG2. Description: Cytotoxicity against human HepG2 cells assessed as cell growth inhibition incubated for 2 days by MTT assay. Conditions: HepG2, 48 h. The data set is classed as functional, cell-based.
In data set [6] the test system is MCF7. Nature of the data set: Cytotoxicity against human MCF7 cells assessed as cell growth inhibition incubated for 2 days by MTT assay. The data set is classed as functional, cell-based. Conditions: MCF7, 48 h.
Data set [7] relates to Staphylococcus aureus. Nature of the data set: Inhibition of EtBr efflux in Staphylococcus aureus SA-1 assessed as reduction in fluorescence intensity at 50 uM measured after 30 mins by spectrophotometry relative to control. The data set is classed as functional. Further details: scale not given: the % may be the effect or the level left.
Another data set relates to Candida parapsilosis. Nature of the data set: Antifungal activity against Candida parapsilosis ATCC 22019 assessed as fungal growth inhibition by spectrophotometry. The data set is classed as functional. Conditions: Lodderomyces parapsilosis.
The test system of data set [8] is Epidermophyton floccosum. Description: Antifungal activity against Epidermophyton floccosum 6999 assessed as fungal growth inhibition by spectrophotometry. The data set is classed as functional.
In data set [9] the test system is Epidermophyton floccosum. Nature of the data set: Antifungal activity against Epidermophyton floccosum 6754 assessed as fungal growth inhibition by spectrophotometry. The data set is classed as functional.
Data set [10] concerns Trichophyton tonsurans. Nature of the data set: Antifungal activity against Trichophyton tonsurans 700 assessed as fungal growth inhibition by spectrophotometry. The data set is classed as functional.
Another data set deals with Trichophyton rubrum. Nature of the data set: Antifungal activity against Trichophyton rubrum 6753 assessed as fungal growth inhibition by spectrophotometry. The data set is classed as functional.
Data set [11] has as its system Trichophyton tonsurans. Description: Antifungal activity against Trichophyton tonsurans 2822 assessed as fungal growth inhibition by spectrophotometry. The data set is classed as functional.
In data set [12] the test system is Staphylococcus aureus. Nature of the data set: Antibacterial activity against Staphylococcus aureus NCIM 2010 assessed as bacterial growth inhibition incubated for 8 hrs. The data set is classed as functional, organism-based. The settings on record: NCIM 2010, 8 h.
Data set [13] deals with Mycobacterium tuberculosis. Description: Antimycobacterial activity against Mycobacterium tuberculosis H37Ra assessed as bacterial growth inhibition incubated for 8 to 12 days by XTT reduction menadione assay. The data set is classed as functional. The settings on record: time 8-12 day.
Data set [14] deals with Staphylococcus aureus. Description: Antibacterial activity against Staphylococcus aureus NCIM 2010 assessed as bacterial growth inhibition incubated for 8 hrs by absorbance based assay. The data set is classed as functional.
For data set [15], the system named is Bacillus subtilis. Description: Antibacterial activity against Bacillus subtilis NCIM 2079 assessed as bacterial growth inhibition incubated for 8 hrs by absorbance based assay. The data set is classed as functional.
Data set [16] deals with Escherichia coli. Description: Antibacterial activity against Escherichia coli NCIM 2688 assessed as bacterial growth inhibition incubated for 8 hrs by absorbance based assay. The data set is classed as functional.
The subject of the next data set is Pseudomonas aeruginosa. Description: Antibacterial activity against Pseudomonas aeruginosa NCIM 2036 assessed as bacterial growth inhibition incubated for 8 hrs by absorbance based assay. The data set is classed as functional.
Data set [17] has as its system Mycobacterium tuberculosis. Description: Antimycobacterial activity against Mycobacterium tuberculosis H37Ra incubated for 8 to 12 days by XTT reduction menadione assay. The data set is classed as functional. Conditions: time 8-12 day.
For data set [18], the system named is Staphylococcus aureus. Description: Antibacterial activity against Staphylococcus aureus NCIM 2010 assessed as reduction in bacterial growth incubated for 8 hrs by absorbance based assay. The data set is classed as functional, organism-based. Conditions: NCIM 2010, 8 h.
Data set [19] deals with Bacillus subtilis. Nature of the data set: Antibacterial activity against Bacillus subtilis NCIM 2079 assessed as reduction in bacterial growth incubated for 8 hrs by absorbance based assay. Conditions: NCIM 2079, 8 h. The data set is classed as functional, organism-based.

As for `COc1ccc2nc3cc(Cl)ccc3c(Nc3sc4c(c3C#N)CCC4)c2c1`, in the data set with Leishmania amazonensis, the EC50 amounted to 9.6 µM. In the data set on DNA, the Kb was 1 10^4/M.

On to `O=C(N[C@H](CO)[C@H](O)c1ccc([N+](=O)[O-])cc1)C(Cl)Cl` [CHLORAMPHENICOL], for which the MIC in the data set with Heyndrickxia coagulans came out at 0.41 µg/mL (≈ 1.27 µM); in the data set with Enterococcus faecalis it was 0.05 µg/mL (≈ 0.155 µM); in the data set on Escherichia coli [1] it was 0.05 µg/mL (≈ 0.155 µM).

`COc1ccc2nc3cc(Cl)ccc3c(Nc3sc4c(c3C#N)CCCC4)c2c1`: the EC50 with Leishmania amazonensis was found to be 11 µM. Besides, in the data set with DNA, the Kb is 1 10^4/M.

Take `N#Cc1c(NC(=O)c2cc(O)c(O)c(O)c2)sc2c1CCC2`: the minimum inhibitory concentration (MIC) was 0.32 µM (≈ 0.101 µg/mL) in the data set on Staphylococcus coagulans, 0.1 µg/mL (≈ 0.316 µM) in the data set with Heyndrickxia coagulans and 0.25 µg/mL (≈ 0.79 µM) in the data set with Enterococcus faecalis.

For `CC(=O)c1ccc(Nc2c(C(C)=O)sc(NC(=O)CC#N)c2C#N)cc1`, the IC50 in the data set on HepG2 [2] (Homo sapiens, HepG2, 48 h) amounted to 56.1 µM; with MCF7 [3], 41.4 µM.

As to `COc1ccc(OC)c(/C=C/C(=O)Nc2sc3c(c2C#N)CCCC3)c1`, the IC50 at TGF-beta receptor type-1 turned out to be 87 nM; in the data set with PC-3, 2640 nM; in the data set with HepG2 [5] it was 2850 nM; with MCF7 [6], 3.5 µM. Further, the IC50 at 2 days in data set [4] was found to be 260 µM.

For `CCCCCCCC(=O)N1CCc2c(sc(NC(=O)C(F)(F)F)c2C(=O)OCC)C1`, the Activity in the data set on Staphylococcus aureus [7] was found to be 85%.

With `N#Cc1c(NC(=O)c2cc(O)c(O)c(O)c2)sc2c1CCCCC2`, the MIC in the data set on Staphylococcus coagulans is 0.43 µM (≈ 0.148 µg/mL); in the data set with Heyndrickxia coagulans, 0.15 µg/mL (≈ 0.436 µM); with Enterococcus faecalis, 0.25 µg/mL (≈ 0.726 µM).

For the molecule `N#Cc1ccsc1/N=C/c1ccc([N+](=O)[O-])cc1`, the MIC turned out to be 1020 µg/mL (≈ 3980 µM) in the data set with Candida parapsilosis; 1020 µg/mL (≈ 3980 µM) in the data set on Epidermophyton floccosum [8]; 512 µg/mL (≈ 1990 µM) with Epidermophyton floccosum [9]; 512 µg/mL (≈ 1990 µM) with Trichophyton tonsurans [10]; 64 µg/mL (≈ 249 µM) in the data set on Trichophyton rubrum.

Regarding `N#Cc1ccsc1/N=C/c1c(Cl)cccc1Cl`, the MIC is 64 µg/mL (≈ 228 µM) with Trichophyton tonsurans [10], 256 µg/mL (≈ 910 µM) in the data set on Trichophyton tonsurans [11] and 32 µg/mL (≈ 114 µM) in the data set on Trichophyton rubrum.

For `Cc1sc(NC(=O)c2cc(O)c(O)c(O)c2)c(C#N)c1C`, the MIC in the data set with Staphylococcus coagulans is 0.49 µM (≈ 0.149 µg/mL); in the data set with Heyndrickxia coagulans, 0.15 µg/mL (≈ 0.493 µM); in the data set with Enterococcus faecalis, 0.25 µg/mL (≈ 0.821 µM).

For the molecule `CC(=O)Nc1sc(C(C)=O)c(Nc2ccc(C(C)=O)cc2)c1C#N`, the IC50 came out at 66.2 µM in the data set with HepG2 [2] (Homo sapiens, HepG2, 48 h) and 64.6 µM with MCF7 [3].

As for `CC(=O)c1ccc(Nc2c(C(=O)/C=C/c3ccccc3)sc(/N=C/c3ccccc3)c2C#N)cc1`, the IC50 with HepG2 [2] (Homo sapiens, HepG2, 48 h) was 19.1 µM; in the data set on HepG2 [2] (hepg2) it was 26.2 µM; in the data set with MCF7 [3] it was 19.1 µM.

Take `COC(=O)c1c(NC(=O)N[C@@H](C(=O)N[C@@H]2C(=O)N3C(C(=O)O)=C(C)CS[C@H]23)c2ccccc2)sc2c1CCCCCC2`: the EC50 in the data set with Staphylococcus aureus [12] turned out to be 180 nM; with Staphylococcus aureus [18], 180 nM; in the data set with Bacillus subtilis [19] it was 260 nM. Besides, in [13], the EC5 worked out at 0.782 µM. In addition, the MIC was 0.46 µg/mL (≈ 0.751 µM) in the data set with Staphylococcus aureus [14]; 2.35 µg/mL (≈ 3.84 µM) with Bacillus subtilis [15]; above 10 µg/mL in the data set with Escherichia coli [16]; above 10 µg/mL with Pseudomonas aeruginosa; 0.782 µg/mL (≈ 1.28 µM) in data set [17].

`COc1ccc(OC)c(/C=C/C(=O)Nc2sc3c(c2C#N)CCC3)c1`: the IC50 is 90 nM and 87 nM against TGF-beta receptor type-1; 1350 nM in the data set on PC-3; 2700 nM with HepG2 [5]; 3.2 µM with MCF7 [6]. Besides, the IC50 at 2 days in [4] amounted to 185 µM.

(Values after ChEMBL document CHEMBL5214926, “Recent contribution of medicinally active 2-aminothiophenes: A privileged scaffold for drug discovery” (Eur J Med Chem, 2022).)
